Key:
PC-3 cells = assay: MTT cytotoxicity assay in PC-3 cells; type: cell-based, human; conditions: for IC50: Homo sapiens, PC-3, 48 h, 48 h of treatment; for SI [IC50(PNT2) / IC50(PC-3)]: ratio of IC50 in PNT2 cells to IC50 in PC-3 cells, 48 h
From the text: (§1) For general experiments human prostate cancer cell lines PC-3 and DU145 (docetaxel-resistant, androgen-independent, AR-FL(−), AR-V7(−)), 22Rv1 and VCaP (docetaxel-sensitive, androgen-independent, AR-FL(+), AR-V7(+), and LNCaP (docetaxel sensitive, androgen-dependent, AR-FL(+), AR-V7(−) were used. PC-3, 22Rv1, LNCaP cells as well as the human prostate non-cancer cells PNT2 and RWPE-1 were purchased from ATCC (Manassas, VA, USA). VCaP were purchased from ECACC (Salisbury, UK). The human fibroblast cell line MRC-9, the human embryonic kidney cell line HEK 293T, as well as the human umbilical vascular endothelial cell line HUVEC were kindly donated by Prof. Dr. Dr. med. Sonja Loges (University Medical Center Hamburg-Eppendorf, Hamburg, Germany). Cells were cultured according to the manufacturers’ instructions and were recently authenticated by a commercial service (Multiplexion, Heidelberg, Germany). Culture conditions are described in the Supplementary Information.
(§2) MTT (3-(4,5-dimethylthiazol-2-yl)-2,5-diphenyltetrazolium bromide) cytotoxicity assay was used for the evaluation of cytotoxicity of the compounds or their combinations. Experiments were performed as previously described. In brief, 6000 cells/well were seeded in 96-well plate, incubated overnight, and treated with the drugs in 100 µL/well of 10% FBS/RPMI media containing 2 g/L of D-(+)-glucose for 48 h, unless otherwise stated. For 2 h treatment the cells were treated with the drugs for 2 h in the culture media, then the media was exchanged to fresh drug-free media (100 µL/well) containing MTT reagent and the further steps were performed as previously described.
(§3) Table S4. Cytotoxic activity of the synthesized compounds. Cytotoxicity was determined in human prostate cancer PC-3 cells versus human prostate non-cancer
(§4) PNT2 cells after 48 h of treatment, as well as its ratio. IC50 was evaluated using MTT assay. SI–selectivity index. #–the IC50s in both cell lines were >100 µM.
(§5) Anisomycin was used as a reference substance.
(§6) No Formula IC50(PC-3) IC50(PNT2) SI […]

PNT2 cells = assay: MTT cytotoxicity assay in PNT2 cells; type: cell-based, human; conditions: 48 h of treatment
From the text: as §1, §2, §3, §4, §5, §6

MRC-9 cells = assay: MTT cytotoxicity assay in MRC-9 cells; type: cell-based; conditions: Homo sapiens, MRC9, 48 h of treatment, non-cancer
Experimental: (§7) Dr. Dr. med. Sonja Loges (University Medical Center Hamburg-Eppendorf, Hamburg, Germany). Cells were cultured according to the manufacturers’ instructions and were recently authenticated by a commercial service (Multiplexion, Heidelberg, Germany). Culture conditions are described in the Supplementary Information.
as §2

VCaP cells = assay: MTT cytotoxicity assay in VCaP cells; type: cell-based; conditions: Homo sapiens, 48 h of treatment, cancer
Experimental: as §7, §2

22Rv1 cells [1] = assay: MTT cytotoxicity assay in 22Rv1 cells; type: cell-based, human; conditions: Homo sapiens
Experimental: as §7, §2

22Rv1 cells [2] = assay: Colony formation assay; type: cell-based, human; conditions: 22Rv1 cells treated with non-cytotoxic concentrations for 48 h
Experimental: Colony formation assays were performed as described before. In brief, cells were treated with the drugs for 48 h and then 100 alive cells were plated into each well of 6-well plates and incubated for 10 days. Surviving colonies were fixed, stained with Giemsa solution and counted.

DU145 cells = assay: MTT cytotoxicity assay in DU145 cells; type: cell-based; conditions: Homo sapiens, DU-145, 48 h of treatment, cancer
Experimental: as §7, §2

22Rv1 cells [3] = assay: Trypan blue exclusion viability assay; type: cell-based; conditions: Homo sapiens, 48 h of treatment
Experimental: The in vitro effect of the drugs on cell viability and proliferation was evaluated using trypan blue exclusion assay as described before with minor modifications. In brief, cells (0.2 × 10^6 cells/well) were seeded in 12-well plates, incubated overnight, the media was replaced with fresh media (1 mL/well) and treated with the drugs for 48 h. Cells were harvested by trypsination and the viability was measured using trypan blue staining and Beckman Coulter Vi-CELL (Beckman Coulter, Krefeld, Germany).

HEK293 cells = assay: MTT cytotoxicity assay in HEK293 cells; type: cell-based; conditions: Homo sapiens, 48 h of treatment, non-cancer
Experimental: as §7, §2

RWPE-1 cells = assay: MTT cytotoxicity assay in RWPE-1 cells; type: cell-based; conditions: Homo sapiens, 48 h of treatment, non-cancer
Experimental: as §7, §2

HUVEC cells = assay: MTT cytotoxicity assay in HUVEC cells; type: cell-based; conditions: Homo sapiens, 48 h of treatment, non-cancer
Experimental: as §7, §2

LNCaP cells = assay: MTT cytotoxicity assay in LNCaP cells; type: cell-based; conditions: Homo sapiens, 48 h of treatment, cancer
Experimental: as §7, §2

22Rv1 cells [4] = assay: Western blotting of treated cells; type: cell-based, human; conditions: for AR-FL and AR-V7 expression: 48 h treatment; for LC3B-II and SQSTM1 levels (autophagy markers): pre-cytotoxic and cytotoxic concentrations, 48 h
Experimental: Preparation of protein extracts for western blotting was performed as described previously. In brief, for western blotting, 1 × 10^6 cells/well were seeded in Petri dishes (ø 6 cm TC Dish (Sarstedt, Numbrecht, Germany) in 5 mL/dish), incubated overnight and treated with drugs in 5 mL/dish for an indicated time. Cells were harvested using a cell scraper, pelleted, and resuspended in the lysis buffer containing protease and phosphatase inhibitors. Further sample preparation and western blotting were performed as previously described with slight modifications. Relative optical density of the detected bands was quantified with Quantity One 4.6 software (Bio-Rad, Hercules, CA, USA). The primary and secondary antibodies used are listed in the Supplementary Information.

[5] = 22Rv1, 48 h of treatment, cancer, read-out: IC50 (22Rv1)
[6] = 22Rv1 cells, 2 h treatment, read-out: IC50 after 2 h of treatment

Row | Compound | IC50 (PC-3 cells) [µM] | SI [IC50(PNT2) / IC50(PC-3)] (PC-3 cells) | IC50 (PNT2 cells; Homo sapiens, PNT2, 48 h) [µM] | other results
1 | CCc1c(O)c2c(c(O)c1OC)C(=O)C(OC)=CC2=O [Compound 17] | 21.8 | 0.57 | 12.5 | 
2 | CC1(C)OC2OC3C(COC4=CC(=O)c5c(O)c(Cl)c(Cl)c(O)c5C4=O)OC(C)(C)OC3C2O1 (stereo not shown) [Compound 26] | 2.75 | 0.75 | 2.07 | 
3 | CCc1c(O)c2c(c(O)c1OC)C(=O)C(OCC1OC(C)(C)OC3C1OC1OC(C)(C)OC13)=CC2=O (stereo not shown) [Compound 18] | 13.6 | 0.7 | 9.56 | 
4 | COC1=CC(=O)c2ccccc2C1=O [Compound 1] | 9.33 | 1.55 | 14.5 | 
5 | O=C1C=C(OCC2OC(O)C(O)C(O)C2O)C(=O)c2ccccc21 (stereo not shown) [Compound 4] | > 100 |  | > 100 | 
6 | CCc1c(O)c2c(c(O)c1OC)C(=O)C(OCC(O)C1OC3OC(C)(C)OC3C1O)=CC2=O (stereo not shown) [Compound 19] | 27.9 | 1.49 | 41.7 | 
7 | CC1(C)OC2OC3C(COC4=CC(=O)c5ccccc5C4=O)OC(C)(C)OC3C2O1 (stereo not shown) [Compound 2] | 13.1 | 1.24 | 16.2 | 
8 | CCc1c(O)c2c(c(O)c1Cl)C(=O)C(OCC(O)C1OC3OC(C)(C)OC3C1O)=CC2=O (stereo not shown) [Compound 23] | 7.35 | 0.71 | 5.21 | 
9 | O=C1C=C(OC[C@H]2OC(O)[C@H](O)[C@@H](O)[C@@H]2O)C(=O)c2c(O)c(Cl)c(Cl)c(O)c21 (stereo partly shown) [Compound 28] | > 100 |  | > 100 | 
10 | CCc1c(O)c2c(c(O)c1OC)C(=O)C(OC[C@H]1OC(O)[C@H](O)[C@@H](O)[C@@H]1O)=CC2=O (stereo partly shown) [Compound 20] | 99 | 0.28 | 27.9 | 
11 | COC1=CC(=O)c2c(O)ccc(O)c2C1=O [Compound 13] | 5.38 | 1.83 | 9.84 | 
12 | COC1=CC(=O)c2cccc(O)c2C1=O [Compound 9] | 2.85 | 1.42 | 4.05 | 
13 | O=C1C=C(OC[C@H]2OC(O)[C@H](O)[C@@H](O)[C@@H]2O)C(=O)c2c(O)cccc21 (stereo partly shown) [Compound 12] |  |  | 103 | IC50 (MRC-9 cells): 153 µM; IC50 (VCaP cells): 57.5 µM; IC50 (22Rv1 cells [1]; [5]): 23.4 µM; IC50 (22Rv1 cells [1]; [6]): 94.9 µM; cancer cell colony formation (22Rv1 cells [2]): suppress cancer cell colony formation; IC50 (DU145 cells): 37.1 µM; IC50 (22Rv1 cells [3]): 14.6 µM; IC50 (HEK293 cells): 69.4 µM; IC50 (RWPE-1 cells): 48 µM; IC50 (HUVEC cells): 45.7 µM; IC50 (LNCaP cells): 24 µM; AR-FL and AR-V7 expression (22Rv1 cells [4]): downregulated both, AR full length (AR-FL) and AR-V7; LC3B-II and SQSTM1 levels (autophagy markers) (22Rv1 cells [4]): accumulation of both, LC3B-II and SQSTM1
14 | O=C1C=C(OCC2OC(O)C(O)C(O)C2O)C(=O)c2c(O)ccc(O)c21 (stereo not shown) [Compound 16] | > 100 |  | > 100 | 
15 | COC1=CC(=O)c2c(O)cccc2C1=O [Compound 5] | 4.46 | 1.31 | 5.84 | 
16 | CCc1c(O)c2c(c(O)c1Cl)C(=O)C(OCC1OC(C)(C)OC3C1OC1OC(C)(C)OC13)=CC2=O (stereo not shown) [Compound 22] | 4.24 | 0.7 | 2.98 | 
17 | O=C1C(OC[C@H]2OC(O)[C@H](O)[C@@H](O)[C@@H]2O)=CC(=O)c2c(O)cccc21 (stereo partly shown) [Compound 8] |  |  | 79.3 | IC50 (MRC-9 cells): 31.6 µM; IC50 (VCaP cells): 56.7 µM; IC50 (22Rv1 cells [1]; [5]): 30.1 µM; IC50 (22Rv1 cells [1]; [6]): 92.4 µM; cancer cell colony formation (22Rv1 cells [2]): suppress cancer cell colony formation; IC50 (DU145 cells): 10.6 µM; IC50 (22Rv1 cells [3]): 19.4 µM; IC50 (HEK293 cells): 40 µM; IC50 (RWPE-1 cells): 49.8 µM; IC50 (HUVEC cells): 73 µM; IC50 (PNT2 cells): 73.7 µM; IC50 (LNCaP cells): 20 µM; AR-FL and AR-V7 expression (22Rv1 cells [4]): downregulated both, AR full length (AR-FL) and AR-V7; LC3B-II and SQSTM1 levels (autophagy markers) (22Rv1 cells [4]): accumulation of both, LC3B-II and SQSTM1
18 | CC1(C)OC2OC(C(O)COC3=CC(=O)c4c(O)ccc(O)c4C3=O)C(O)C2O1 (stereo not shown) [Compound 15] | 5.46 | 1.03 | 5.65 | 
19 | CCc1c(O)c2c(c(O)c1Cl)C(=O)C(OC)=CC2=O [Compound 21] | 31.6 | 0.87 | 27.4 | 
20 | CC1(C)OC2OC(C(O)COC3=CC(=O)c4c(O)c(Cl)c(Cl)c(O)c4C3=O)C(O)C2O1 (stereo not shown) [Compound 27] | 3.47 | 1.29 | 4.47 | 
21 | CC1(C)OC2OC3C(COC4=CC(=O)c5c(O)cccc5C4=O)OC(C)(C)OC3C2O1 (stereo not shown) [Compound 6] | 4.51 | 0.91 | 4.12 | 
22 | COC1=CC(=O)c2c(O)c(Cl)c(Cl)c(O)c2C1=O [Compound 25] | 2.3 | 0.53 | 1.22 | 
23 | CC1(C)OC2OC3C(COC4=CC(=O)c5cccc(O)c5C4=O)OC(C)(C)OC3C2O1 (stereo not shown) [Compound 10] | 4.16 | 1.53 | 6.37 | 
24 | CCc1c(O)c2c(c(O)c1Cl)C(=O)C(OC[C@H]1OC(O)[C@H](O)[C@@H](O)[C@@H]1O)=CC2=O (stereo partly shown) [Compound 24] | > 100 |  | > 100 | 
25 | CC1(C)OC2OC(C(O)COC3=CC(=O)c4ccccc4C3=O)C(O)C2O1 (stereo not shown) [Compound 3] | 24.2 | 1.28 | 31.1 | 
26 | CC1(C)OC2OC3C(COC4=CC(=O)c5c(O)ccc(O)c5C4=O)OC(C)(C)OC3C2O1 (stereo not shown) [Compound 14] | 17.7 | 1.05 | 18.6 | 

Reference: paper PMC6896172, “Successful Targeting of the Warburg Effect in Prostate Cancer by Glucose-Conjugated 1,4-Naphthoquinones” (Cancers, 2019)
